Assay results reported in patent publication US10898583B2, “Harnessing quantum dots to study, visualize, and promote immune tolerance” (University of Maryland, College Park, priority 2016, dated 2021).
Where no end group is shown, it is not given here.

Assays:
[1] = test system: experimental autoimmune encephalomyelitis (EAE); test: EAE induction, MOG-QD treatment and monitoring; type: in vivo, C57BL/6 mice; details: single s.c. injection day 2, through day 21
Method: C57BL/6 mice (female, 10-12 weeks) were induced with EAE following a defined protocol from Hooke Labs. Briefly, mice were injected s.c. with an emulsion of MOG and complete Freund's adjuvant (CFA) at the upper and lower back on day 0. Pertussis toxin was also administered intraperitoneally 2 and 24 hours after MOG/CFA injection. Beginning at day 7, mice were weighed to detect changes from day 0 body weight (a symptom of disease) and scored for disease severity with respect to paralysis. A standard clinical scoring rubric was used: 0—no symptoms, 1—limp tail, 2—weakness of hind legs, 3—hind limb paralysis, 4—hind limb paralysis and partial front limb paralysis, 5—moribund.^[6, 7, 15]
Mice induced with EAE were randomly divided into groups of 8-10 mice each. A control group was left untreated in each experiment. In one experiment, additional groups were treated by s.c. injection at the tailbase with 0.2 nanomoles QDs, 70 μg MOG, 70 μg CTRL peptide on 0.2 nanomoles QDs (100:1), or 70 μg MOG peptide on 0.2 nanomoles QDs (100:1). Similar experiments contained two treatment groups: 14.3 μg MOG on 0.4 nanomoles QDs (17:1) or 73 μg MOG on 0.2 nanomoles QDs (52:1). The final experiment design contained three treatment groups: 70 μg MOG on 0.5 nanomoles QDs (25:1), 70 μg MOG on 0.4 nanomoles QDs (52:1), or 70 μg MOG on 0.3 nanomoles QDs (65:1).

[2] = test system: transgenic 2D2 CD4+ T cells; test: 2D2 T cell proliferation (proliferation dye dilution) in DC co-culture; type: cell-based, mouse; details: DCs treated with CpG; 17 or 52 peptides per QD; 72 hours
Method: Stained cells were analyzed by flow cytometry.

Sequence	disease progression (clinical score) ([1]; 100:1, 70 μg peptide on 0.2 nanomoles QDs or component controls)	disease incidence ([1]; 100:1 or component controls)	2D2 T cell proliferation [2]
HHHHHSAAAAAGMEVGWYRSPFSRVVHLYRNGK [free MOG]	none of the groups except MOG-QDs caused significant differences in clinical scores	no differences in disease incidence	equivalent
HHHHHSAAAAAGISQAVHAAHAEINEAGR (not fully specified) [free CTRL peptide]	–	–	neither CTRL-QDs nor free CTRL peptide caused proliferation
